Legend:
[1] = system: human LDLs; experiment: Modification of human LDLs by copper sulphate (lipid peroxidation, MDA production); type: biochemical; conditions: copper sulphate 5×10^-6 M, 24 hours; read-out: IC50, inhibition of copper-induced modification (MDA production) of human LDLs
Procedure: Human LDLs are incubated for 24 hours in the presence of copper sulphate (5×10^-6 M) and in the absence or presence of the compounds tested (10^-7 M to 10^-4 M). After incubation, the peroxidation of the LDLs is evaluated by electrophoresis on agar gel and by the formation of one of the products of lipid peroxidation malonic dialdehyde (MDA), (Parthasarathy S., Young S. G., Witztum J. L., Pittman R. C. and Steinberg, D.; J. Clin. invest. 77; 641-644, 1986).
The activity of the tested compounds is evaluated by calculating those concentrations (IC50) that reduce the production of MDA by 50% compared with control experiments in the absence of the tested compound.

[2] = system: isolated hearts of rats; experiment: Hypoxia reoxygenation on the isolated heart of a rat; parameters: species or system Wistar rat; conditions: for functional recovery of the hearts during reoxygenation / reduction of the developing contracture at the end of 30 minutes reoxygenation: Example 1 at 3×10^-7 M, 10 at 10^-7 M, 13 at 7×10^-7 M; for functional recovery of the hearts during reoxygenation: 40% in the control experiments; for reduction of the developing contracture at the end of 30 minutes reoxygenation: vs control; for Contracture, hypoxia 10 min / Contracture, hypoxia 30 min / Contracture, hypoxia 60 min / Contracture, reoxygenation 15 min / Contracture, reoxygenation 30 min: Example 1 at 3 × 10^-7 M, Example 10 at 10^-7 M, Example 13 at 7 × 10^-7 M; for Contracture, hypoxia 10 min: control 23.7 ± 6.8; for Contracture, hypoxia 30 min: control 33.7 ± 8.9; for Contracture, hypoxia 60 min: control 32.3 ± 7.4; for Contracture, reoxygenation 15 min: control 20.6 ± 7.8; for Contracture, reoxygenation 30 min: control 12.3 ± 6.1
Procedure: The hearts of male Wistar rats (325-375 g--Charles River breed) anaesthetized by the intraperitoneal route with sodium pentobarbital (30 mg/kg) are removed after the injection of heparin i.v. (1 ml/kg) and rapidly perfused by the Langendorff technique at a constant pressure of 76 mmhg and stimulated electrically at 5 Hz. The isovolumetric contractions are recorded by way of a small polyethylene balloon connected to a pressure sensor (P23-Gould) introduced into the left ventricle and inflated so as to obtain a diastolic pressure of approximately 10 mmhg. The physiological solution used, maintained at 37° C., has the following composition (mM): NaCl 118; KCl 4.7; KH2 PO4 1.2; MgCl2 1.2; CaCl2 1.3; NaHCO3 25; glucose 8, pH 7.4/95% O2 +5% CO2.
After a period of stabilization of from 15 to 30 minutes, the heart is subjected to hypoxia for 60 minutes (effected with 95% N2 and 5% CO2; PO2 <40 mmHg), followed by reoxygenation for 30 minutes; the compound is added to the incubation medium 15 minutes before and during the period of hypoxia.

[3] = system: rat aorta; experiment: Study on isolated vessels: vascular relaxing effect on a rat aorta contracted by potassium (80 mM); parameters: species or system Wistar rat; conditions: rat aorta rings without endothelium contracted by potassium (80 mM)
Procedure: The thoracic aorta of Wistar rats (325-375 g) that have been anaesthetized by the intraperitoneal route with sodium pentobarbital (30 mg/kg) is removed and dissected into rings 3 mm in length; the endothelium is removed by gentle abrasion using a piece of wood. Each ring is connected to a Statham pressure sensor (UC2-Gould). The initial pressure applied is 2.5 g. The physiological solution used, maintained at 37° C., has the following composition (mM): NaCl 112; KCl 5; KH2 PO4 1; MgSO4 1.2; CaCl2 2.5; NaHCO3 25; glucose 11.; EDTA 0.026. After a stabilization period of 90 minutes, the aorta rings are subjected to a hyperpotassic medium (80 MM KCl and 37 mM NaCl). When the contraction is stable, cumulative concentrations of compound are added to the medium every 15 minutes. The relaxation values obtained enable calculation of the IC50.

[4] = system: cardiac cells; experiment: Oxidative necrosis of cardiac cells induced by hypoxanthine/xanthine-oxidase (XO + HX); type: cell-based, rat (newborn); conditions: Rattus norvegicus, 4 h; for activity at 10 µM: 10^-5 M, read-out: necrosis index of cardiac cells, XO + HX, compound 10^-5 M; for activity at 10 µM / activity at 1 µM / activity at 0.1 µM: XO + HX, control XO + HX = 100.0; for activity at 1 µM: 10^-6 M, read-out: necrosis index of cardiac cells, XO + HX, compound 10^-6 M; for activity at 0.1 µM: 10^-7 M, read-out: necrosis index of cardiac cells, XO + HX, compound 10^-7 M; for minimal effective concentration: XO + HX induced oxidative necrosis, read-out: concentration at which compounds prove to be protective against necrosis
Procedure: The cardiac cells of newborn rats are used between the 5th and 6th days after placing in culture. Oxidative necrosis is induced by the free radical-producing enzymatic system hypoxanthine (HX, 1 -mm) and xanthineoxidase (XO, 10 mU/ml). The necrosis is evaluated 4 hours after the addition of XO/HX by measuring by spectrophotometry the cytosolic α-hydroxybutyrate dehydrogenase (a-HBDH) activity liberated in the supernatant. The cells are treated with the test compounds 16 hours and 1 hour before the beginning of the experiment after renewing the medium. At the beginning of the experiment, the treatment is carried out again one last time.
Table 3 lists the necrosis indices of cardiac cells induced by the hypoxanthine/xanthine-oxidase system alone or in the presence of increasing concentrations of the compounds of the invention.

| IC50 [1] | IC50 [3] | SMILES | functional recovery of the hearts during reoxygenation [2] | reduction of the developing contracture at the end of 30 minutes reoxygenation [2] | Contracture, hypoxia 10 min [2] | Contracture, hypoxia 30 min [2] | Contracture, hypoxia 60 min [2] | Contracture, reoxygenation 15 min [2] | Contracture, reoxygenation 30 min [2] | activity at 10 µM [4] | activity at 1 µM [4] | activity at 0.1 µM [4] | minimal effective concentration [4] |
| --- | --- | --- | --- | --- | --- | --- | --- | --- | --- | --- | --- | --- | --- |
| 1000 nM | – | COc1ccc(CN2CCN(CCCCCOc3cc(C(C)(C)C)c(O)c(C(C)(C)C)c3)CC2)c(OC)c1OC [Example 8, 4-(2,3,4-trimethoxybenzyl)-l-[5-(4-hydroxy-3,5-di-tert.-butylphenoxy)pentyl]piperazine] | – | – | – | – | – | – | – | 27.2 ± 2% | 21.6 ± 4.2% | 91.4 ± 3.1% | – |
| 80 nM | – | COc1ccc(CN2CCN(CCCCCSc3cc(C(C)(C)C)c(O)c(C(C)(C)C)c3)CC2)c(OC)c1OC [Example 9, 4-(2,3,4-trimethoxybenzyl)-l-[5-(4-hydroxy-3,5-di-tert.-butylphenylthio)pentyl]piperazine] | – | – | – | – | – | – | – | 33.3 ± 6.6% | 15.2 ± 2% | 53 ± 5.5% | ≥ 0.1 µM |
| 600 nM | – | COc1ccc(CN2CCN(CC(O)COc3cc(C)c(O)c(C)c3C)CC2)c(OC)c1OC (stereo not drawn) [Example 11, 4-(2,3,4-trimethoxybenzyl)-l-[3-(4-hydroxy-2,3,5-trimethylphenoxy)-2-hydroxypropyl]piperazine] | – | – | – | – | – | – | – | 18 ± 2.9% | 70.9 ± 8.3% | 114 ± 5.2% | – |
| 800 nM | – | COc1ccc(CN2CCN(CC(C)(C)CSc3cc(C(C)(C)C)c(O)c(C(C)(C)C)c3)CC2)c(OC)c1OC [Example 12, 4-(2,3,4-trimethoxybenzyl)-l-[3-(4-hydroxy-3,5-di-tert.-butylphenylthio)-2,2-dimethylpropyl]piperazine] | – | – | – | – | – | – | – | – | – | – | – |
| 70 nM | 4300 nM | COc1ccc(CN2CCN(CC(O)CSc3cc(C)c(O)c(C)c3C)CC2)c(OC)c1OC (stereo not drawn) [Example 13, 4-(2,3,4-trimethoxybenzyl)-l-[3-(4-hydroxy-2,3,5-trimethylphenylthio)-2-hydroxypropyl)piperazine] | more than 70% | more than 70% | 11.0 ± 4.4 mm Hg | 15.0 ± 6.1 mm Hg | 13.5 ± 6.3 mm Hg | 6.0 ± 6.0 mm Hg | 3.5 ± 3.5 mm Hg | 15.1 ± 0.6% | 64.7 ± 0.4% | 100 ± 4.8% | – |

Continued, compound first:

| SMILES | IC50 [1] | IC50 [3] | functional recovery of the hearts during reoxygenation [2] | reduction of the developing contracture at the end of 30 minutes reoxygenation [2] | Contracture, hypoxia 10 min [2] | Contracture, hypoxia 30 min [2] | Contracture, hypoxia 60 min [2] | Contracture, reoxygenation 15 min [2] | Contracture, reoxygenation 30 min [2] | activity at 10 µM [4] | activity at 1 µM [4] | activity at 0.1 µM [4] | minimal effective concentration [4] |
| --- | --- | --- | --- | --- | --- | --- | --- | --- | --- | --- | --- | --- | --- |
| COc1ccc(CN2CCN(CCCOc3cc(C)c(O)c(C)c3C)CC2)c(OC)c1OC [Example 1, 4-(2,3,4-trimethoxybenzyl)-1-[3-(4-hydroxy-2,3,5-trimethylphenoxy)propyl]piperazine] | 90 nM | 5000 nM | more than 70% | more than 70% | 21.0 ± 5.8 mm Hg | 22.5 ± 2.5 mm Hg | 21.0 ± 3.9 mm Hg | 12.5 ± 5.1 mm Hg | 2.5 ± 2.5 mm Hg | 13.9 ± 5.3% | 55.4 ± 6.4% | 70.4 ± 2.5% | ≥ 0.1 µM |
| COc1ccc(CN2CCN(CCC(C)(C)Sc3cc(C(C)(C)C)c(O)c(C(C)(C)C)c3)CC2)c(OC)c1OC [Example 2, 4-(2,3,4-trimethoxybenzyl)-1-[3-(4-hydroxy-3,5-di-tert.-butylphenylthio)-3,3-dimethylpropyl]piperazine] | 3000 nM | – | – | – | – | – | – | – | – | – | – | – | – |
| COc1ccc(CN2CCN(CCCOc3cc(C(C)(C)C)c(O)c(C(C)(C)C)c3)CC2)c(OC)c1OC [Example 3, 4-(2,3,4-trimethoxybenzyl)-l-[3-(4-hydroxy-3,5-di-tert.-butylphenoxy)propyl]piperazine] | 500 nM | – | – | – | – | – | – | – | – | 37.6 ± 2.7% | 16.9 ± 1.1% | 72.6 ± 5.7% | ≥ 0.1 µM |
| COc1ccc(CN2CCN(CCCc3cc(C(C)(C)C)c(O)c(C(C)(C)C)c3)CC2)c(OC)c1OC [Example 4, 4-(2,3,4-trimethoxybenzyl)-l-[3-(4-hydroxy-3,5-di-tert.-butylphenyl)propyl]piperazine] | 2000 nM | – | – | – | – | – | – | – | – | 10.2 ± 3.1% | 22.3 ± 6.5% | 103 ± 12% | – |
| COc1ccc(CN2CCN(CC(O)COc3cc(C(C)(C)C)c(O)c(C(C)(C)C)c3)CC2)c(OC)c1OC (stereo not drawn) [Example 5, 4-(2,3,4-trimethoxybenzyl)-l-[3-(4-hydroxy-3,5-di-tert.-butylphenoxy)-2-hydroxypropyl]piperazine] | 900 nM | – | – | – | – | – | – | – | – | – | – | – | – |
| COc1ccc(CN2CCN(CC(O)CSc3cc(C(C)(C)C)c(O)c(C(C)(C)C)c3)CC2)c(OC)c1OC (centres unmarked) [Example 6, 4-(2,3,4-trimethoxybenzyl)-I-[3-(4-hydroxy-3,5-di-tert.-butylphenylthio)-2-hydroxypropyl]piperazine] | 300 nM | 2700 nM | – | – | – | – | – | – | – | 8.3 ± 1.4% | 7.7 ± 0.1% | 99.5 ± 7.5% | – |
| COc1ccc(CN2CCN(CCCSc3cc(C(C)(C)C)c(O)c(C(C)(C)C)c3)CC2)c(OC)c1OC [Example 7, 4-(2,3,4-trimethoxybenzyl)-I-[3-(4-hydroxy-3,5-di-tert.-butylphenylthio)propyl]piperazine] | 600 nM | – | – | – | – | – | – | – | – | 27.9 ± 3.4% | 19.3 ± 0.9% | 85.9 ± 1.7% | – |
